Measurements from patent US20210246208A1, “COMBINED INHIBITION OF PD-1/PD-L1, TGFB AND DNA-PK FOR THE TREATMENT OF CANCER” (MERCK PATENT GMBH, priority 2018, published 2021).

Experiments:
MC38 tumors = experiment: M3814 and avelumab in murine colon tumor model MC38 (Example 1); format: in vivo, C57BL6/N mice; conditions: M3814 150 mg/kg orally once daily, avelumab 400 μg/mouse i.v. days 3, 6, 9; for median time the tumors needed to double in size compared to initial volume at day 0: MC38 in C57BL6/N mice, Kaplan-Meyer evaluation; for T/C value: calculated at day 13
Text: M3814 was applied daily started from day 0; Avelumab was applied on days 3, 6 and 9.
This model allows the use of immunocompetent mice, a necessary requirement to study the T-cell mediated antitumor effect of Avelumab. The experimental set up included the induction of MC38 tumors in C57BL6/N mice by injection of 1×10^6 tumor cells into the right flank of the animals. Tumor growth was followed over time by measuring length and width using a caliper. When tumors were established to an average size of 50-100 mm^3, mice were subdivided in 4 treatment groups with 10 animals each, and treatment started. This day was defined as day 0. Group 1 received vehicle treatment. Group 2 received M3814 orally once daily at 150 mg/kg in a volume of 10 ml/kg. Group 3 received avelumab intravenously once daily at 400 μg/mouse in a volume of 5 ml/kg on days 3, 6 and 9. Group 4 received M3814 orally once daily at 150 mg/kg in a volume of 10 ml/kg and avelumab intravenously once daily at 400 μg/mouse in a volume of 5 ml/kg on days 3, 6 and 9.

[1] = test system: EMT, fibrosis and VEGF pathway gene signatures in 4T1 tumor tissue; experiment: RNAseq gene signatures of 4T1 tumor tissue (Example 3G); format: in vivo, BALB/c mice; conditions: tumors harvested day 6
Method: Tumor tissues were harvested at Day 6 for RNAseq analysis. Gene expression signatures associated with (A) EMT, (B) fibrosis, and (C) VEGF pathway signatures are presented as box plots. Signature scores are defined as the mean log2 (fold change) among all genes in the signature.
RNAseq was performed with Qiagen targeted RNAseq panels consisting of 1278 total genes. EMT and fibrosis gene signatures were based on Qiagen gene lists and the VEGF pathway signature was based on the Biocarta VEGF pathway in Broad's Canonical Pathways. For these gene sets, signature scores are defined as the mean log2 (fold-change) among all genes in each gene signature. These were calculated by adding a pseudocount of 0.5 TPM to all genes and samples, determining the log2 (TPM), then subtracting the median log 2-TPM for each gene across all samples from the log2-TPM for each gene. Signature scores for gene sets are shown as boxplots.

DNA-PK = DNA-PK (Homo sapiens, UniProt P78527); experiment: Crystallographic and enzyme kinetics studies on DNA-PK; format: biochemical
Text: DNA-PK, together with five additional protein factors (Ku70, Ku80, XRCC4, Ligase IV and Artemis) plays a critical role in the repair of DSB via NHEJ. Kinase activity of DNA-PK is essential for proper and timely DNA repair and the long-term survival of cancer cells.

4T1 mammary tumors = experiment: 4T1 mammary tumor model, tumor volume and survival (Example 3A); conditions: concurrent dosing; day 10; Trap 492 μg day 0, 2, 4; radiation 8 Gy day 0-3; M3814 150 mg/kg p.o. q.d. day 0-14
Method: BALB/c mice were inoculated intramuscularly (i.m.) with 0.5×10^5 4T1 cells (day −6) and treated (n=10 mice/group) with (A-C) isotype control (400 μg i.v.; day 0, 2, 4)+vehicle control (0.2 mL, orally [per os; p.o.], once daily [quaque die; q.d.], day 0-14), M7824 (492 μg i.v.; day 0, 2, 4), radiation (8 Gy, day 0-3), M3814 (150 mg/kg, p.o, q.d., day 0-14), M7824+RT, M7824+M3814, RT+M3814, or M7824+RT+M3814; or (D-F) isotype control (400 μg i.v.; day 4, 6, 8)+vehicle control (0.2 mL, (p.o.), (q.d.), day 0-14), M7824 (492 μg i.v.; day 4, 6, 8), radiation (8 Gy, day 0-3), M3814 (150 mg/kg, p.o, q.d., day 0-14), M7824+RT, M7824+M3814, RT+M3814, or M7824+RT+M3814. A-B, D-E, Tumor volumes were measured twice weekly and presented as (A, D) mean±SEM or (B, E) individual tumor volumes. P-values were calculated by two-way RM ANOVA with Tukey's post-test. C, F, For survival analysis, mice were sacrificed when tumor volumes reached ≈2000 mm^3 and median survival times were calculated.
For efficacy and survival studies, 4T1 cells, 0.5×10^5, were inoculated intramuscularly (i.m.) in the thigh of BALB/c mice on day −6. […]
Tumor sizes for the 4T1 and MC38 models were measured twice per week with digital calipers and recorded automatically using WinWedge software. Tumor volumes were calculated with the following formula: tumor volume (mm^3)=tumor length×width×height×0.5236. […]

[2] = 10 mg/kg dose; cited from earlier work

Row | Compound | median time the tumors needed to double in size compared to initial volume at day 0 (MC38 tumors) [days] | T/C value (MC38 tumors) [%] | EMT signature score [1] | fibrosis signature score [1] | inhibition of DNA-PK (DNA-PK) | tumor volume (4T1 mammary tumors) | pharmacokinetics profile [2] | receptor occupancy [2] | tolerability [2]
1 | COc1ccc([C@@H](O)c2cc(-c3ncnc4cc(N5CCOCC5)ccc34)c(F)cc2Cl)nn1 [Compound M3814, (S)-[2-chloro-4-fluoro-5-(7-morpholin-4-yl-quinazolin-4-yl)-phenyl]-(6-methoxypyridazin-3-yl)-methanol] | 10 | 47 | no effect on the EMT signature | significantly decreased the score | potent and selective ATP-competitive inhibitor of DNA-PK | did not significantly affect tumor growth | – | – | –
2 | avelumab: fully human monoclonal antibody of the immunoglobulin (Ig) G1 isotype that selectively binds to PD-L1 | 13 | 60 | – | – | – | – | predictable pharmacokinetics profile | excellent receptor occupancy | well tolerated
